± gives the uncertainty stated by the source.
Test: xn = mol fraction of the nth substance listed

C1CCCCC1 + c1ccccc1
Details	viscosity [mPa·s]
298.15 K, 101.33 kPa, x2 = 0.15	0.7725 ± 0.02
298.15 K, 101.33 kPa, x2 = 0.2174	0.7122 ± 0.018
298.15 K, 101.33 kPa, x2 = 0.2438	0.7115 ± 0.019
298.15 K, 101.33 kPa, x2 = 0.3364	0.6599 ± 0.017
298.15 K, 101.33 kPa, x2 = 0.35	0.6571 ± 0.017
298.15 K, 101.33 kPa, x2 = 0.4874	0.6124 ± 0.016
298.15 K, 101.33 kPa, x2 = 0.5	0.612 ± 0.016
298.15 K, 101.33 kPa, x2 = 0.549	0.6011 ± 0.016
298.15 K, 101.33 kPa, x2 = 0.647	0.5879 ± 0.015
298.15 K, 101.33 kPa, x2 = 0.65	0.5853 ± 0.015
298.15 K, 101.33 kPa, x2 = 0.7814	0.583 ± 0.015
298.15 K, 101.33 kPa, x2 = 0.7848	0.574 ± 0.015
298.15 K, 101.33 kPa, x2 = 0.9	0.5761 ± 0.015
298.15 K, 101.33 kPa, x2 = 0.9033	0.5926 ± 0.015
303.15 K, 101 kPa, x1 = 0.0989	0.5467 ± 0.004
303.15 K, 101 kPa, x1 = 0.1983	0.5433 ± 0.004
303.15 K, 101 kPa, x1 = 0.3019	0.5485 ± 0.004
303.15 K, 101 kPa, x1 = 0.3998	0.5602 ± 0.004
303.15 K, 101 kPa, x1 = 0.5035	0.5792 ± 0.0041
303.15 K, 101 kPa, x1 = 0.6015	0.6041 ± 0.0042
303.15 K, 101 kPa, x1 = 0.7002	0.6378 ± 0.0044
303.15 K, 101 kPa, x1 = 0.7987	0.6822 ± 0.0046
303.15 K, 101 kPa, x1 = 0.8977	0.7447 ± 0.0048
303.15 K, 101 kPa, x2 = 0.094	0.755 ± 0.015
303.15 K, 101 kPa, x2 = 0.1043	0.7412 ± 0.008
303.15 K, 101 kPa, x2 = 0.2011	0.6892 ± 0.0076
303.15 K, 101 kPa, x2 = 0.251	0.658 ± 0.013
303.15 K, 101 kPa, x2 = 0.3015	0.6418 ± 0.0073
303.15 K, 101 kPa, x2 = 0.4038	0.6099 ± 0.0071
303.15 K, 101 kPa, x2 = 0.418	0.594 ± 0.012
303.15 K, 101 kPa, x2 = 0.5005	0.5913 ± 0.007
303.15 K, 101 kPa, x2 = 0.582	0.566 ± 0.012
303.15 K, 101 kPa, x2 = 0.6032	0.5734 ± 0.0069
303.15 K, 101 kPa, x2 = 0.7006	0.5632 ± 0.0069
303.15 K, 101 kPa, x2 = 0.736	0.55 ± 0.011
303.15 K, 101 kPa, x2 = 0.7996	0.5634 ± 0.0069
303.15 K, 101 kPa, x2 = 0.891	0.555 ± 0.011
303.15 K, 101 kPa, x2 = 0.9011	0.5689 ± 0.0069
303.45 K, 101.33 kPa, x1 = 0.7	0.6645 ± 0.0077
303.55 K, 101.33 kPa, x1 = 0.5	0.6035 ± 0.007
303.65 K, 101.33 kPa, x1 = 0.4	0.5874 ± 0.0068
303.75 K, 101.33 kPa, x1 = 0.3	0.5794 ± 0.0067
304.25 K, 101.33 kPa, x1 = 0.85	0.7288 ± 0.0085
304.55 K, 101.33 kPa, x1 = 0.6	0.6189 ± 0.0072
306.35 K, 101.33 kPa, x1 = 0.2	0.5538 ± 0.0064
308.15 K, 101 kPa, x2 = 0.1043	0.6842 ± 0.0076
308.15 K, 101 kPa, x2 = 0.2011	0.6409 ± 0.0073
308.15 K, 101 kPa, x2 = 0.3015	0.5971 ± 0.0071
308.15 K, 101 kPa, x2 = 0.4038	0.5697 ± 0.0069
308.15 K, 101 kPa, x2 = 0.5005	0.5535 ± 0.0068
308.15 K, 101 kPa, x2 = 0.6032	0.537 ± 0.0067
308.15 K, 101 kPa, x2 = 0.7006	0.5274 ± 0.0067
308.15 K, 101 kPa, x2 = 0.7996	0.5266 ± 0.0067
308.15 K, 101 kPa, x2 = 0.9011	0.5325 ± 0.0067
312.15 K, 101.33 kPa, x1 = 0.1	0.5154 ± 0.006
312.65 K, 101.33 kPa, x1 = 0.4	0.5272 ± 0.0061
312.65 K, 101.33 kPa, x1 = 0.5	0.5397 ± 0.0063
312.75 K, 101.33 kPa, x1 = 0.3	0.5184 ± 0.006
312.85 K, 101.33 kPa, x1 = 0.6	0.5535 ± 0.0064
313.15 K, 101 kPa, x2 = 0.094	0.651 ± 0.013
313.15 K, 101 kPa, x2 = 0.1043	0.6342 ± 0.0073
313.15 K, 101 kPa, x2 = 0.2011	0.5944 ± 0.0071
313.15 K, 101 kPa, x2 = 0.251	0.574 ± 0.012
313.15 K, 101 kPa, x2 = 0.3015	0.5574 ± 0.0068
313.15 K, 101 kPa, x2 = 0.4038	0.5315 ± 0.0067
313.15 K, 101 kPa, x2 = 0.418	0.53 ± 0.011
313.15 K, 101 kPa, x2 = 0.5005	0.5172 ± 0.0067
313.15 K, 101 kPa, x2 = 0.582	0.499 ± 0.01
313.15 K, 101 kPa, x2 = 0.6032	0.5037 ± 0.0066
313.15 K, 101 kPa, x2 = 0.7006	0.494 ± 0.0065
313.15 K, 101 kPa, x2 = 0.736	0.489 ± 0.01
313.15 K, 101 kPa, x2 = 0.7996	0.4952 ± 0.0065
313.15 K, 101 kPa, x2 = 0.891	0.49 ± 0.01
313.15 K, 101 kPa, x2 = 0.9011	0.4973 ± 0.0066
313.25 K, 101.33 kPa, x1 = 0.2	0.5122 ± 0.0059
314.15 K, 101.33 kPa, x1 = 0.85	0.6325 ± 0.0074
315.75 K, 101.33 kPa, x1 = 0.7	0.5676 ± 0.0066
322.55 K, 101.33 kPa, x1 = 0.6	0.5006 ± 0.0058
322.85 K, 101.33 kPa, x1 = 0.85	0.567 ± 0.0066
322.95 K, 101.33 kPa, x1 = 0.1	0.4571 ± 0.0053
322.95 K, 101.33 kPa, x1 = 0.4	0.4739 ± 0.0055
323.15 K, 100 kPa, x2 = 0.2504	0.5258 ± 0.014
323.15 K, 100 kPa, x2 = 0.4997	0.4555 ± 0.012
323.15 K, 100 kPa, x2 = 0.7497	0.4303 ± 0.012
323.15 K, 101 kPa, x2 = 0.094	0.567 ± 0.012
323.15 K, 101 kPa, x2 = 0.251	0.506 ± 0.01
323.15 K, 101 kPa, x2 = 0.418	0.471 ± 0.01
323.15 K, 101 kPa, x2 = 0.582	0.445 ± 0.009
323.15 K, 101 kPa, x2 = 0.736	0.442 ± 0.009
323.15 K, 101 kPa, x2 = 0.891	0.438 ± 0.009

From the CheMixHub viscosity set
